# Data published in patent publication US7468369B2, “Sulfonyl pyrrolidines, method for producing the same and their use as drugs” (Sanofi-Aventis, priority 2005, dated 2008).
# Test system: human ABCA1 promoter
# Experiment: ABCA1 promoter test (luciferase reporter in stably transfected THP1 cell line)
# Assay type: cell-based
# Conditions: Homo sapiens, THP-1; ABCA1 reporter cell line (THP1, PMA-differentiated), 24 h incubation, luciferase chemiluminescence; read-out: E50 ABCA1
# Protocol: The potency of substances which activate expression of the human ABCA1 gene via its promoter is analyzed by using a stably transfected THP1 cell line (human monocyte cell line) which is referred to herein as ABCA1 reporter cell line. It contains a fragment, 3.2 kb in size and stably integrated into the genome, of the human ABCA1 promoter in front of a luciferase reporter element. Expression of the luciferase reporter gene is only low without addition of an ABCA1 expression activator. The substances stimulating ABCA1 expression bring about, via activation of the ABCA1 promoter, an enhanced expression of the luciferase reporter gene. The luciferase which is formed can be detected via an appropriate substrate by means of chemiluminescence.
# Construction of the Cell Line
# The ABCA1 reporter line was prepared as follows: firstly the neomycin resistance gene (Acc. No.: AJ000156) was introduced into the luciferase reporter plasmid pLG3basic (#1751, Promega) 3′ below the luciferase reporter element. Subsequently, an ABCA1 promoter fragment, 3.2 kb in size and amplified from human genomic DNA (#6550-1, Clontech) by the polymerase chain reaction, was cloned in 5′ above the luciferase reporter element. The reporter plasmid produced in this way was called pGL3BN-ABCA1P. Luciferase expression in this plasmid is controlled by the ABCA1 promoter. Cloning and sequencing of the construct took place in analogy to the description in Sambrook J et al. (Molecular cloning, Cold Spring Harbor Laboratory Press, 1989). For stable transfection into THP1 cells, firstly pGL3BN-ABCA1P was linearized with a restriction endonuclease and then introduced into the THP1 cells as stated in Ausubel, F. M. et al. (Current protocols in molecular biology, Vol. 1-3, John Wiley & Sons, Inc., 1995).
# The activity of ABCA1 expression activators is determined in a 3-day test which is described below:
# The ABCA1 reporter cell line comprises suspension cells. These are cultured until the concentration is 0.5×10^6 cells/ml in RPMI medium (#52400-025, Invitrogen) which is mixed with the following additions: 10% FCS (fetal calf serum; #16000-044, invitrogen), 0.5 mg/ml Geneticin (#10131-019, invitrogen) and 1% penicillin-streptomycin solution (#15140-122, invitrogen). The culturing takes place in standard cell culture flasks (#353112, Becton Dickinson) in a cell culture incubator at 37° C. in the presence of 5% CO2.
# For the ABCA1 promoter test, the suspension cells are centrifuged at 1200 rpm in 50 ml tubes. The supernatant is aspirated off, and the pellet is resuspended in 15 ml of RPMI medium and counted in a cell counter. After dilution to 175 000 cells/ml, 0.1 μg/ml PMA (phorbol 12-myristate 13-acetate, #8139-5MG, Sigma) is added in order to induce differentiation of the monocytic THP1 suspension cells into adherent macrophages. 35 000 cells in each well are seeded in a 96-well microtiter plate with clear plastic base (#3610, Corning Costar). The plates are incubated in a cell culture incubator at 37° C. and 5% CO2 for 24 h.
# The ABCA1 expression activators to be tested are dissolved in a concentration of 10 mM in DMSO. This stock solution is diluted in the RPMI medium (mixed with 0.1 μg/ml PMA) described above. Test substances are tested in 11 different concentrations in the range from […] to 330 pM. The medium of the ABCA1 reporter cell line seeded on day 1 is completely removed by aspiration and the diluted test substances are immediately added to the cells. The dilution and addition of the substances takes place with a pipetting robot (Beckman FX). The final volume of the test substances diluted in medium is 100 μl per well of a 96-well microtiter plate. The DMSO concentration in the test is less than 0.1% v/v in order to avoid cytotoxic effects of the solvent.
# The test plates are incubated in an incubator at 37° C. and 5% CO2 for 24 h.
# The ABCA1 reporter cells treated with the test substances are removed from the incubator and the medium is aspirated off. […]
row,EC50 [µM],Compound
1,16.2,"O=C([C@@H]1CN(S(=O)(=O)c2ccc(Cl)s2)C[C@H]1c1ccccc1)N1CCN(c2cccc(C(F)(F)F)c2)CC1 (racemic) [Example 32, [1-(5-Chlorothiophene-2-sulfonyl)-3,4-trans-4-phenylpyrrolidin-3-yl]-[4-(3-trifluoromethylphenyl)piperazin-1-yl]methanone]"
2,6.59,"O=C([C@@H]1CN(S(=O)(=O)c2cc(Cl)c(Cl)s2)C[C@H]1c1ccccc1)N1CCN(c2cccc(C(F)(F)F)c2)CC1 (racemic) [Example 33, [1-(4,5-Dichlorothiophene-2-sulfonyl)-3,4-trans-4-phenylpyrrolidin-3-yl]-[4-(3-trifluoromethylphenyl)piperazin-1-yl]methanone]"
3,3.6,"Cc1ccc(N2CCN(C(=O)[C@@H]3CN(S(=O)(=O)c4cccs4)C[C@H]3c3ccccc3)CC2)c(C)c1 (racemic) [Example 36, [4-(2,4-Dimethylphenyl)piperazin-1-yl]-[3,4-trans-4-phenyl-1-(thiophene-2-sulfonyl)pyrrolidin-3-yl]methanone]"

# Continued, compound first:
row,Compound,EC50 [µM]
1,"CC(=O)c1ccc(N2CCN(C(=O)[C@@H]3CN(S(=O)(=O)c4cccs4)C[C@H]3c3ccccc3)CC2)cc1 (racemic) [Example 7, 1-(4-{4-[3,4-trans-4-Phenyl-1-(thiophene-2-sulfonyl)pyrrolidine-3-carbonyl]-piperazin-1-yl}phenyl)ethanone]",13.2
2,"COc1ccccc1N1CCN(C(=O)[C@@H]2CN(S(=O)(=O)c3cccs3)C[C@H]2c2ccccc2)CC1 (racemic) [Example 24, [4-(2-Methoxyphenyl)piperazin-1-yl]-[3,4-trans-4-phenyl-1-(thiophene-2-sulfonyl)pyrrolidin-3-yl]methanone]",15
3,"COc1ccccc1N1CCN(C(=O)[C@@H]2CN(S(=O)(=O)c3cc(Br)c(Br)s3)C[C@H]2c2ccccc2)CC1 (racemic) [Example 25, [1-(4,5-Dibromothiophene-2-sulfonyl)-3,4-trans-4-phenylpyrrolidin-3-yl]-[4-(2-methoxyphenyl)piperazin-1-yl]methanone]",3.81
4,"COc1ccccc1N1CCN(C(=O)[C@@H]2CN(S(=O)(=O)c3ccc(Cl)s3)C[C@H]2c2ccccc2)CC1 (racemic) [Example 26, [1-(5-Chlorothiophene-2-sulfonyl)-3,4-trans-4-phenylpyrrolidin-3-yl]-[4-(2-methoxyphenyl)piperazin-1-yl]methanone]",2.94
5,"COc1ccccc1N1CCN(C(=O)[C@@H]2CN(S(=O)(=O)c3cc(Cl)c(Cl)s3)C[C@H]2c2ccccc2)CC1 (racemic) [Example 27, [1-(4,5-Dichlorothiophene-2-sulfonyl)-3,4-trans-4-phenylpyrrolidin-3-yl]-[4-(2-methoxyphenyl)piperazin-1-yl]methanone]",6.99
6,"COc1ccccc1N1CCN(C(=O)[C@@H]2CN(S(=O)(=O)c3sc4ccc(Cl)cc4c3C)C[C@H]2c2ccccc2)CC1 (racemic) [Example 29, [1-(5-Chloro-3-methylbenzo[b]thiophene-2-sulfonyl)-3,4-trans-4-phenyl-pyrrolidin-3-yl]-[4-(2-methoxyphenyl)piperazin-1-yl]methanone]",5.61
7,"O=C([C@@H]1CN(S(=O)(=O)c2cccs2)C[C@H]1c1ccccc1)N1CCN(c2cccc(C(F)(F)F)c2)CC1 (racemic) [Example 30, [3,4-trans-4-Phenyl-1-(thiophene-2-sulfonyl)pyrrolidin-3-yl]-[4-(3-trifluoromethylphenyl)piperazin-1-yl]methanone]",3.22
8,"O=C([C@@H]1CN(S(=O)(=O)c2cc(Br)c(Br)s2)C[C@H]1c1ccccc1)N1CCN(c2cccc(C(F)(F)F)c2)CC1 (racemic) [Example 31, [1-(4,5-Dibromothiophene-2-sulfonyl)-3,4-trans-4-phenylpyrrolidin-3-yl]-[4-(3-trifluoromethylphenyl)piperazin-1-yl]methanone]",1.77
